Measurements published in PMC10301603, “Potent and Selective Benzothiazole-Based Antimitotics with Improved Water Solubility: Design, Synthesis, and Evaluation as Novel Anticancer Agents” (Pharmaceutics, 2023).
Converted amounts (≈) assume the structure as drawn.

Assays:
GL261 cells = test: Cell growth inhibition assay (MTT); assay type: cell-based, murine; conditions: Mus musculus, GL261, 72 h after drug exposure
Experimental: (§1) The cell lines were obtained from ATTC (Manassas, VA, USA). HeLa (human cervix epithelioid carcinoma), MCF7 (human breast adenocarcinoma), HepG2 (human hepatocellular carcinoma), U87 MG (human glioblastoma), T98G (human glioblastoma), GL261 (murine glioma), LNCaP (human prostate cancer), PC-3 (human prostate cancer), and HEK-293 (human embryonic kidney) were grown in Dulbecco’s modified Eagle’s medium (DMEM, Gibco, Waltham, MA, USA), supplemented with 10% (v/v) heat-inactivated fetal bovine serum (HIFBS, Sigma-Aldrich, St. Louis, MO, USA)), 2 mM L-glutamine, 100 μg/mL streptomycin, and 100 units/mL penicillin (Gibco, Waltham, MA, USA) at 37 °C in saturated humidity atmosphere containing 95% air and 5% CO2. Cell line HT-29 (human colon carcinoma) was grown in Roswell Park Memorial Institute (RPMI) 1640 medium (Gibco, Whaltman, MA, USA) supplemented with 10% HIFBS, 100 μg/mL streptomycin, and 100 units/mL penicillin (Gibco, Whaltman, MA, USA) at 37 °C in humidified 95% air and 5% CO2 atmosphere. MycoAlert kit (Lonza, Norwest, Australia) was used to routinely check the presence of mycoplasma, and only mycoplasma-free cells were employed in the experiments.
(§2) Cells were plated in 96-well plates (100 µL/well) at the following concentrations: 30,000 cells/mL (HepG2, U87 MG, T98G, C6, LNCaP, PC3, and HT-29 cells) or 15,000 cells/mL (HeLa and MCF-7 cells). Previous experiments were performed to choose the optimal cell concentration (70–80% confluence) and avoid the formation of cell aggregates. Cells were incubated in complete DMEM or RPMI 1640 medium (see above) at 37 °C and 5% CO2 atmosphere for 24 h to allow for cell attachment to the plate. Then, every compound was added (10 µL/well) to a final concentration of 10 µM. Non-treated cells were used as negative controls. The antiproliferative activity of compounds was measured 72 h after the treatments using the MTT reagent (3-[4,5-dimethylthiazol-2-yl]-2,5-diphenyltetrazolium bromide), (MTT Thiazolyl Blue Tetrazolium Bromide, Sigma-Aldrich, St. Louis, MO, USA) dissolved in PBS at 5 mg/mL. Compounds showing antiproliferative effects at 10 µM were selected to determine their IC50 value. For that purpose, compounds were used at different concentrations ranging from 10^−10 to 10^−2 M. Measurements were performed in triplicate, and each experiment was repeated three times. The IC50 value was determined for every compound using Origin software (OriginLab, Washington, USA). To study the sensitivity to MDR efflux pumps of compounds, the IC50 values were determined by following the same procedure but in the presence of verapamil (final concentration of 10 µM).

bovine brain tubulin = test: Tubulin polymerization inhibition (turbidimetry); assay type: biochemical; conditions: for Tubulin polymerization inhibition (in words): 10 µM; for % TPI: compounds tested at 10 µM, with respect to the negative control; for IC50: concentration inhibiting 50% of microtubular protein polymerization in vitro, read-out: TPI IC50
Experimental: Microtubular protein was isolated from calf brain following the modified Shelanski method, based on temperature-dependent assembly/disassembly of tubulin [45]. The protein was stored at −80 °C, and its concentration was determined using the Bradford method before each use. Tubulin polymerization, which occurs when heating a buffered tubulin sample from 4 °C to 37 °C, is accompanied by an increase in the absorbance (at 450 nm) of the sample that was monitored by a Helios α spectrophotometer. […] Then, the temperature was adjusted to 4 °C, and the temperature being shifted to 37 °C allowed for the assembly process of tubulin. The turbidity caused by tubulin polymerization was measured by the increased absorbance at 450 nm. The increase in absorbance obtained for the control sample (without the ligand), which we considered to be 100% tubulin polymerization (0% inhibition), compared with the increase in absorbance determined for the sample containing ligands yielded the degree of tubulin polymerization inhibition (TPI), which is expressed as a percentage value. For the compounds displaying TPI values over 50% at 10 µM, the IC50 value for TPI was calculated. Measurements were performed in triplicate in two independent experiments using microtubular protein from different preparations.

HT-29 cells [1] = test: Cell growth inhibition (MTT) in the presence of 10 µM verapamil (sensitivity to MDR efflux pumps); assay type: cell-based, human; conditions: 10 µM verapamil (P-gp/MDR1 inhibitor)
Experimental: as §2

MCF7 cells = test: Cell growth inhibition assay (MTT); assay type: cell-based, human; conditions: Homo sapiens, MCF7; MTT, 72 h after drug exposure
Experimental: as §1, §2

HeLa cells = test: Cell growth inhibition assay (MTT); assay type: cell-based, human; conditions: Homo sapiens, HeLa, 72 h after drug exposure
Experimental: as §1, §2

HT-29 cells [2] = test: Cell growth inhibition assay (MTT); assay type: cell-based, human; conditions: Homo sapiens, HT-29, 72 h after drug exposure
Experimental: as §1, §2

LNCaP cells = test: Cell growth inhibition assay (MTT); assay type: cell-based, human; conditions: Homo sapiens, LNCaP, 72 h after drug exposure
Experimental: as §1, §2

PC-3 cells = test: Cell growth inhibition assay (MTT); assay type: cell-based, human; conditions: Homo sapiens, PC-3, 72 h after drug exposure
Experimental: as §1, §2

U87MG cells = test: Cell growth inhibition assay (MTT); assay type: cell-based, human; conditions: Homo sapiens, U-87 MG; MTT, 72 h after drug exposure
Experimental: as §1, §2

T98G cells = test: Cell growth inhibition assay (MTT); assay type: cell-based, human; conditions: Homo sapiens, T98G, 72 h after drug exposure
Experimental: as §1, §2

HepG2 cells = test: Cell growth inhibition assay (MTT); assay type: cell-based, human; conditions: Homo sapiens, HepG2, 72 h after drug exposure
Experimental: as §1, §2

[3] = Aqueous solubility, shake-flask method; assay type: physicochemical; conditions: pH 7.0 buffer, pH 7, aqueous buffer, thermodynamic from solid, shaking flask, buffered media at pH 7.0, mean of three
Experimental: The aqueous solubility of compounds was measured in a Helios Alfa Spectrophotometer. Calibration lines at the maximum wavelength of absorbance were determined for each compound. Then, following the shake-flask method, a suspension of 5 mg of each compound in 500 µL in pH 7.0 buffer was stirred for 72 h at room temperature. The mixture was then filtrated over a […] filter to remove the insoluble fraction. The concentration of the compound in the resulting saturated solution was determined via UV absorbance measurement and interpolation in the calibration line. The aqueous solubility values are given as the average of three independent measurements.

HEK-293 cells = test: Cell growth inhibition assay (MTT), non-tumorigenic cells; assay type: cell-based, human; conditions: Homo sapiens, HEK293, 72 h after drug exposure, non-tumorigenic cell line
Experimental: as §1, §2

| Structure (SMILES) | IC50 (GL261 cells) [µM] | Tubulin polymerization inhibition (in words) (bovine brain tubulin) | % TPI (bovine brain tubulin) [%] | IC50 (bovine brain tubulin) [µM] | IC50 (HT-29 cells [1]) [µM] | IC50 (MCF7 cells) [µM] | IC50 (HeLa cells) [µM] | IC50 (HT-29 cells [2]) [µM] | IC50 (LNCaP cells) [µM] | IC50 (PC-3 cells) [µM] | IC50 (U87MG cells) [µM] | IC50 (T98G cells) [µM] | IC50 (HepG2 cells) [µM] | solubility at 72 h [3] [µg/mL] | IC50 (HEK-293 cells) [µM] |
| --- | --- | --- | --- | --- | --- | --- | --- | --- | --- | --- | --- | --- | --- | --- | --- |
| COc1ccc2nc(N(C=O)Cc3[nH]cnc3C)sc2c1 [Compound 16, N-(6-methoxybenzo[d]thiazol-2-yl)-N-((4-methyl-1H-imidazol-5-yl)methyl)formamide] | > 10 | not able to inhibit tubulin polymerization | 0 | > 10 | > 10 | > 10 | > 10 | > 10 | > 10 | > 10 | > 10 | > 10 | > 10 | 165 (≈ 546 µM) | > 10 |
| COc1ccc2nc(N(C=O)Cc3ccccc3)sc2c1 [Compound 17, N-benzyl-N-(6-methoxybenzo[d]thiazol-2-yl)formamide] | 6.41 | – | 4 | > 10 | > 10 | 5.02 | 3.4 | > 10 | 4.01 | > 10 | 5.27 | > 10 | 5.55 | 12 (≈ 40.2 µM) | > 10 |
| COc1ccc2nc(N(C=O)Cc3ccc4ccccc4c3)sc2c1 [Compound 18, N-(6-methoxybenzo[d]thiazol-2-yl)-N-(naphthalen-2-ylmethyl)formamide] | > 10 | not able to inhibit tubulin polymerization | 0 | > 10 | > 10 | > 10 | > 10 | > 10 | > 10 | > 10 | > 10 | > 10 | > 10 | < 9 | > 10 |
| COc1ccc2nc(N(Cc3ccccn3)C(C)=O)sc2c1 [Compound 19, N-(6-methoxybenzo[d]thiazol-2-yl)-N-(pyridin-2-ylmethyl)acetamide] | 1.38 | – | 43 | > 10 | 2.93 | 2.03 | 1.55 | 2.54 | 2.07 | 3.01 | 1.41 | 2.44 | 1.88 | 87 (≈ 278 µM) | > 10 |
| COc1ccc2nc(N(Cc3cccnc3)C(C)=O)sc2c1 [Compound 20, N-(6-methoxybenzo[d]thiazol-2-yl)-N-(pyridin-3-ylmethyl)acetamide] | 0.622 | – | 57 | 8.1 | 1.48 | 0.911 | 1.03 | 1.52 | 1.39 | 1.62 | 0.632 | 0.825 | 0.813 | 93 (≈ 297 µM) | 9.9 |
| COc1ccc2nc(N(Cc3ccncc3)C(C)=O)sc2c1 [Compound 21, N-(6-methoxybenzo[d]thiazol-2-yl)-N-(pyridin-4-ylmethyl)acetamide] | 1.59 | – | 41 | > 10 | 2.55 | 1.97 | 1.22 | 2.23 | 1.81 | 2.63 | 1.27 | 2.3 | 1.49 | 90 (≈ 287 µM) | > 10 |
| COc1ccc2nc(N(Cc3[nH]cnc3C)C(C)=O)sc2c1 [Compound 22, N-(6-methoxybenzo[d]thiazol-2-yl)-N-((4-methyl-1H-imidazol-5-yl)methyl)acetamide] | > 10 | not able to inhibit tubulin polymerization | 0 | > 10 | > 10 | > 10 | > 10 | > 10 | > 10 | > 10 | > 10 | > 10 | > 10 | 171 (≈ 540 µM) | > 10 |
| COc1ccc2nc(N(Cc3ccccc3)C(C)=O)sc2c1 [Compound 23, N-benzyl-N-(6-methoxybenzo[d]thiazol-2-yl)acetamide] | 6.33 | – | 3 | > 10 | > 10 | 6.3 | 3.9 | > 10 | 4.95 | > 10 | 7.51 | > 10 | 4.29 | 13 (≈ 41.6 µM) | > 10 |
